{"source": "ChEMBL document CHEMBL5126528", "about": "“Recent strategies targeting Embryonic Ectoderm Development (EED) for cancer therapy: Allosteric inhibitors, PPI inhibitors, and PROTACs” (Eur J Med Chem, 2022)", "key": {"DB [1]": {"test_system": "DB", "test": "Antiproliferative activity against human DB cells measured after 9 days by tryphan blue staining", "type": "functional, cell-based", "settings": "216 h"}, "Pfeiffer [2]": {"test_system": "Pfeiffer", "test": "Antiproliferative activity against human Pfeiffer cells measured after 3 days by tryphan blue staining", "type": "functional, cell-based", "settings": "72 h"}, "[3]": {"biological_target": "Histone-lysine N-methyltransferase EZH2 (Homo sapiens, UniProt Q15910)", "sequence (Q15910 whole entry)": "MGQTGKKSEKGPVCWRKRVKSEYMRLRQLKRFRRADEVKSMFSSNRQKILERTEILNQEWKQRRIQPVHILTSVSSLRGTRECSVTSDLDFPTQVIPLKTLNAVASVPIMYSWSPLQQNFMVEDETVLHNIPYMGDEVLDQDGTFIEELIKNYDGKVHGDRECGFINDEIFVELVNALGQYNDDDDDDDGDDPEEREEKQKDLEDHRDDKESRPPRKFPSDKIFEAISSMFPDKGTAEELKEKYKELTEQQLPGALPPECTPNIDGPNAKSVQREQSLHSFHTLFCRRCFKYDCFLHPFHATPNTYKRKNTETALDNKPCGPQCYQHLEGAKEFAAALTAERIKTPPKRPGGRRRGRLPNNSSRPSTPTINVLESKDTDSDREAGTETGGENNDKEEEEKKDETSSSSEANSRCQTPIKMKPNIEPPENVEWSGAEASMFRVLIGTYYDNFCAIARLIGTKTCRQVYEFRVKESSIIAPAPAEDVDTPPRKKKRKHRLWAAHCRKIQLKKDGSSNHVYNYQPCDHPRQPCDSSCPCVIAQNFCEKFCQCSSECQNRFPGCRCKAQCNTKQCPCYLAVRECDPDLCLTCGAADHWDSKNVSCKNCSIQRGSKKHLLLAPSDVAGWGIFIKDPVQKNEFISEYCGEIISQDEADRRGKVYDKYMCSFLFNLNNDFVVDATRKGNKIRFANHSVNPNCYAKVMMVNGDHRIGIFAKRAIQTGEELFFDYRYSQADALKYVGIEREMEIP", "test": "Inhibition of EZH2 (unknown origin)"}, "[4]": {"biological_target": "T1, von Hippel-Lindau disease tumor suppressor/Polycomb protein EED (Homo sapiens, UniProt O75530+P40337)", "test": "Protac activity at VHL/EED in human HeLa cells assessed as degradation of protein measured after 24 hrs by Bradford assay kit method", "type": "cell-based"}, "[5]": {"biological_target": "T2, von Hippel-Lindau disease tumor suppressor/Histone-lysine N-methyltransferase EZH2 (Homo sapiens, UniProt Q15910+P40337)", "test": "Protac activity at VHL/EZH2 in human HeLa cells assessed as degradation of protein measured after 24 hrs by Bradford assay kit method", "type": "cell-based"}, "[6]": {"biological_target": "T1, von Hippel-Lindau disease tumor suppressor/Polycomb protein EED", "test": "Protac activity at VHL/EED in human DB cells assessed as degradation of protein measured after 24 to 72 hrs by Bradford assay kit method", "type": "cell-based"}, "[7]": {"biological_target": "T3, von Hippel-Lindau disease tumor suppressor/Polycomb protein SUZ12 (Homo sapiens, UniProt Q15022+P40337)", "test": "Protac activity at VHL/SUZ12 in human HeLa cells assessed as degradation of protein measured after 24 hrs by […] relative to control", "type": "cell-based"}, "[8]": {"biological_target": "T2, von Hippel-Lindau disease tumor suppressor/Histone-lysine N-methyltransferase EZH2", "test": "Protac activity at VHL/EZH2 in human DB cells assessed as degradation of protein measured after 24 to 72 hrs by Bradford assay kit method", "type": "cell-based"}, "[9]": {"biological_target": "T3, von Hippel-Lindau disease tumor suppressor/Polycomb protein SUZ12", "test": "Protac activity at VHL/SUZ12 in human DB cells assessed as degradation of protein measured after 24 to 72 hrs by Bradford assay kit method", "type": "cell-based"}, "[10]": {"biological_target": "T1, von Hippel-Lindau disease tumor suppressor/Polycomb protein EED", "test": "Protac activity at VHL/EED in human DB cells assessed as degradation of protein measured after 24 to 72 hrs by Bradford assay kit method relative to control", "type": "cell-based", "settings": "time 24-72 hrs"}, "[11]": {"biological_target": "T2, von Hippel-Lindau disease tumor suppressor/Histone-lysine N-methyltransferase EZH2", "test": "Protac activity at VHL/EZH2 in human DB cells assessed as degradation of protein measured after 24 to 72 hrs by Bradford assay kit method relative to control", "type": "cell-based", "settings": "time 24-72 hrs"}, "[12]": {"biological_target": "T3, von Hippel-Lindau disease tumor suppressor/Polycomb protein SUZ12", "test": "Protac activity at VHL/SUZ12 in human DB cells assessed as degradation of protein measured after 24 to 72 hrs by Bradford assay kit method relative to control", "type": "cell-based", "settings": "time 24-72 hrs"}, "DB [13]": {"test_system": "DB", "test": "Antiproliferative activity against human DB cells assessed as viable cells with replenishment of medium with compound for every three days upto 9 days by trypan blue staining based automated bio-rad TC20 cell counter method", "type": "functional"}, "Pfeiffer [14]": {"test_system": "Pfeiffer", "test": "Antiproliferative activity against human Pfeiffer cells assessed as viable cells with replenishment of medium with compound for every three days upto 6 days by trypan blue staining based automated bio-rad TC20 cell counter method", "type": "functional"}}}
{"smiles": "Cc1ncsc1-c1ccc(CNC(=O)[C@@H]2C[C@@H](O)CN2C(=O)[C@@H](NC(=O)CCCNC(=O)c2ccc(-c3cnc(NCc4ccco4)n4cnnc34)cc2)C(C)(C)C)cc1", "values": [{"measurement": "EC50", "setting": "DB [1]", "value": 3.4, "unit": "µM"}, {"measurement": "IC50", "setting": "Pfeiffer [2]", "value": 0.41, "unit": "µM"}, {"measurement": "IC50", "setting": "[3]", "value": 0.3, "unit": "µM"}, {"measurement": "DC50", "setting": "[4]", "value": 0.79, "unit": "µM"}, {"measurement": "DC50", "setting": "[5]", "value": 0.3, "unit": "µM"}, {"measurement": "DC50", "setting": "[6]", "value": 0.61, "unit": "µM"}, {"measurement": "Emax", "setting": "[7]", "value": 22, "unit": "%"}, {"measurement": "DC50", "setting": "[8]", "value": 0.67, "unit": "µM"}, {"measurement": "DC50", "setting": "[9]", "value": 0.59, "unit": "µM"}, {"measurement": "Emax", "setting": "[10]", "value": 94, "unit": "%"}, {"measurement": "Emax", "setting": "[11]", "value": 96, "unit": "%"}, {"measurement": "Emax", "setting": "[12]", "value": 82, "unit": "%"}, {"measurement": "EC50", "setting": "DB [13]", "value": 3.4, "unit": "µM"}, {"measurement": "EC50", "setting": "Pfeiffer [14]", "value": 0.41, "unit": "µM"}]}
